The target in one assay is T1, recombinant human NAE enzyme (Homo sapiens, UniProt Q8TBC4).
T1 construct: His (N); made in house; host or cells: Sf9 insect cells (baculovirus, Bac-to-Bac)
T1 sequence (Q8TBC4 1-463): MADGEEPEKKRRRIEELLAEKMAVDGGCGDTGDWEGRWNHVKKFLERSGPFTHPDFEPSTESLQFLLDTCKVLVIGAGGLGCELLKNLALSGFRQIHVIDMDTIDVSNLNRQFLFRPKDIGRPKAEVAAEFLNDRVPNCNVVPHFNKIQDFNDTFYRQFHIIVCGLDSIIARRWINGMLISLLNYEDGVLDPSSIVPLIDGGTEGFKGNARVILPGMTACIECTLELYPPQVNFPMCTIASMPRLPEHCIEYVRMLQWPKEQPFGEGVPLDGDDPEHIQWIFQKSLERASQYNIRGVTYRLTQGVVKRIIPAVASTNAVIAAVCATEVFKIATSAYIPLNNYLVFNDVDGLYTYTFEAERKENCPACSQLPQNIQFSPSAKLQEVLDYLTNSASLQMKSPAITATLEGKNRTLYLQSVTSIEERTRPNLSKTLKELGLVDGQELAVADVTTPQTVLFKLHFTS
T1 sequence (Q13564 1-534 partner): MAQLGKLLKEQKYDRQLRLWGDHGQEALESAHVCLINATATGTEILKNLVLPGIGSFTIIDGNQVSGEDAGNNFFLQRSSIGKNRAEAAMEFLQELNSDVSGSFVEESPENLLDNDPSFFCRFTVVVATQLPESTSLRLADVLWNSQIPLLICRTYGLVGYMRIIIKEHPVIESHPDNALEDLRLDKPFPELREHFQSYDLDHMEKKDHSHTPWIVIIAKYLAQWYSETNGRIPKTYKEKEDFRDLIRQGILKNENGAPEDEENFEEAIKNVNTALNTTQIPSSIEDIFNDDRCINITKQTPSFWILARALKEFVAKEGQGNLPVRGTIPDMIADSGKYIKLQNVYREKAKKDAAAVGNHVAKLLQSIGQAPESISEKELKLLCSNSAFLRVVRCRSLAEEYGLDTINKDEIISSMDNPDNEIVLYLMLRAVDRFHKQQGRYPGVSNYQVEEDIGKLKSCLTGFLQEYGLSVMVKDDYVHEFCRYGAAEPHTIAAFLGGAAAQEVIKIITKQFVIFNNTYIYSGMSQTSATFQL
Nature of the assay: Nedd8-Activating Enzyme (NAE) HTRF Assay. Type of assay: biochemical. As to conditions: 20 μM ATP, bound given in nM. On the procedure:
Following manufacturer instructions, baculoviruses were generated with the Bac-to-Bac Expression System (Invitrogen) for the following proteins: untagged NAEα (APPBP1; NP_003896.1), N-terminally His-tagged NAEJ (UBE1C; NP_003959.3), untagged SAEα (SAE1; NP_005491.1), N-terminally His-tagged SAE3 (UBA2; NP_005490.1), N-terminally His-tagged murine UAE (UBE1X; NP_033483). NAEα/His-NAEβ and SAEα/His-SAEβ complexes were generated by co-infection of Sf9 cells, which were harvested after 48 hours. His-mUAE was generated by single infection of Sf9 cells and harvested after 72 hours. Expressed proteins were purified by affinity chromatography (Ni-NTA agarose, Qiagen) using standard buffers. Nedd8-Activating Enzyme (NAE) HTRF Assay. The NAE enzymatic reaction totaled 50 μL and contained 50 mM HEPES (pH 7.5), 0.05% BSA, 5 mM MgCl2, 20 μM ATP, 250 μM GSH, 0.01 μM Ubc12-GST, 0.075 μM Nedd8-Flag and 0.20 nM recombinant human NAE enzyme. The enzymatic reaction mixture, with and without compound inhibitor, was incubated at room temperature 24° C. for 105 minutes in a 384-well plate before termination with 25 μL of Stop/Detection buffer (0.1M HEPES pH 7.5, 0.05% Tween20, 20 mM EDTA, 410 mM KF, 0.53 nM Europium-Cryptate labeled monoclonal anti-FLAG M2 antibody (CisBio International) and 8.125 μg/mL PHYCOLINK goat anti-GST allophycocyanin (XL-APC) antibody (Prozyme)). After incubation for 1 hour at 24° C., quantification of the FRET was performed on the Analyst™ HT 96.384 (Molecular Devices).
Take `NS(=O)(=O)OC[C@H]1C[C@@H](Nc2cc(N[C@H]3CCc4c(Cl)cccc43)ncn2)[C@H](O)[C@@H]1O` [Compound I-24, {(1R,2R,3S,4R)-4-[(6-{[(1S)-4-chloro-2,3-dihydro-1H-inden-1-yl]amino}-pyrimidin-4-yl)-amino]-2,3-dihydroxycyclopentyl}methyl sulfamate]: the IC50 is not above 500 nM.

For the compound `NS(=O)(=O)OC[C@H]1C[C@@H](Nc2cc(N[C@H]3CCc4ccccc43)ncn2)C[C@@H]1O` [Compound I-25, [(1R,2S,4R)-4-({6-[(1S)-2,3-dihydro-1H-inden-1-ylamino]pyrimidin-4-yl}amino)-2-hydroxycyclopentyl]methyl sulfamate], the IC50 was not above 500 nM.

`NS(=O)(=O)OC[C@H]1C[C@@H](Nc2ncnc(N[C@H]3CCc4ccccc43)n2)[C@H](O)[C@@H]1O` [Compound I-26, [(1R,2R,3S,4R)-4-({4-[(1S)-2,3-dihydro-1H-inden-1-ylamino]-1,3,5-triazin-2-yl}-amino)-2,3-dihydroxycyclopentyl]methyl sulfamate]: the 50% inhibitory concentration (IC50) was not above 500 nM.

Regarding `NS(=O)(=O)OC[C@H]1C[C@@H](Nc2cc(NCc3ccccc3)ncn2)[C@H](O)[C@@H]1O` [Compound I-27, ((1R,2R,3S,4R)-4-{[6-(benzylamino)pyrimidin-4-yl]amino}-2,3-dihydroxycyclopentyl)-methyl sulfamate], the IC50 was not above 500 nM.

As for `NS(=O)(=O)OC[C@H]1C[C@@H](NC(=O)c2ccncc2)[C@H](O)[C@@H]1O` [Compound I-28, [(1R,2R,3S,4R)-2,3-dihydroxy-4-(isonicotinoylamino)cyclopentyl]methyl sulfamate], the IC50 is more than 500 nM.

Consider `NS(=O)(=O)OC[C@H]1C[C@@H](Nc2cc(N[C@H]3CCc4ccccc43)ncn2)[C@H](O)[C@@H]1O` [Compound I-29, [(1R,2R,3S,4R)-4-({6-[(1S)-2,3-dihydro-1H-inden-1-ylamino]pyrimidin-4-yl}-amino)-2,3-dihydroxycyclopentyl]methyl sulfamate], for which the IC50 is not above 500 nM.

With `Cc1c(N[C@H]2CCc3ccccc32)ncnc1O[C@@H]1C[C@@H](COS(N)(=O)=O)[C@@H](O)C1` [Compound I-32, [(1S,2S,4R)-4-({6-[(1S)-2,3-dihydro-1H-inden-1-ylamino]-5-methylpyrimidin-4-yl}oxy)-2-hydroxycyclopentyl]methyl sulfamate], the IC50 was not above 500 nM.

As for `NS(=O)(=O)OC[C@@H]1C[C@@H](Cc2cc(N[C@H]3CCc4ccccc43)ncn2)C[C@@H]1O` [Compound I-33, [(1S,2S,4S)-4-({6-[(1S)-2,3-dihydro-1H-inden-1-ylamino]pyrimidin-4-yl}methyl)-2-hydroxycyclopentyl]methyl sulfamate], the IC50 is more than 500 nM.

For the compound `NS(=O)(=O)OC[C@@H]1C[C@@H](Nc2ncnc3[nH]c(-c4ccccc4Cl)nc23)C[C@@H]1O` [Compound I-34, ((1S,2S,4R)-4-{[8-(2-chlorophenyl)-9H-purin-6-yl]amino}-2-hydroxycyclopentyl)methyl sulfamate], the IC50 is not above 500 nM.

As to `CC1(C)C[C@H](Nc2cc(O[C@@H]3C[C@@H](COS(N)(=O)=O)[C@@H](O)C3)ccn2)c2ccc(Cl)cc21` [Compound I-35, {(1S,2S,4R)-4-[(2-{[(1S)-5-chloro-3,3-dimethyl-2,3-dihydro-1H-inden-1-yl]-amino}-pyridin-4-yl)oxy]-2-hydroxycyclopentyl}methyl sulfamate], the IC50 is more than 500 nM.

Turning to `Cn1c(-c2ccccc2)nc2ncnc(N[C@@H]3C[C@@H](COS(N)(=O)=O)[C@@H](O)C3)c21` [Compound I-36, {(1S,2S,4R)-2-hydroxy-4-[(7-methyl-8-phenyl-7H-purin-6-yl)-amino]cyclopentyl}methyl sulfamate], the IC50 is more than 500 nM.

For `NS(=O)(=O)OC[C@@H]1C[C@@H](Nc2ncnc3[nH]c(-c4ccccc4Oc4ccccc4)nc23)C[C@@H]1O` [Compound I-37, ((1S,2S,4R)-2-hydroxy-4-{[8-(2-phenoxyphenyl)-9H-purin-6-yl]amino}-cyclopentyl)methyl sulfamate], the IC50 is not above 500 nM.

As to `NS(=O)(=O)OC[C@@H]1C[C@@H](Nc2ncnc3[nH]c(-c4ccccc4)cc23)C[C@@H]1O` [Compound I-38, {(1S,2S,4R)-2-hydroxy-4-[(6-phenyl-7H-pyrrolo[2,3-d]pyrimidin-4-yl)-amino]cyclopentyl}methyl sulfamate], the IC50 is not above 500 nM.

Turning to `NS(=O)(=O)OC[C@@H]1C[C@@H](Nc2ncnc3[nH]c(-c4cccc5c4oc4ccccc45)nc23)C[C@@H]1O` [Compound I-39, {(1S,2S,4R)-4-[(8-dibenzo[b,d]furan-4-yl-9H-purin-6-yl)amino]-2-hydroxycyclopentyl}methyl sulfamate], the IC50 was not above 500 nM.

On to `NS(=O)(=O)OC[C@@H]1C[C@@H](Oc2cc(N[C@H]3CCCc4ccccc43)ncn2)C[C@@H]1O` [Compound I-40, [(1S,2S,4R)-2-hydroxy-4-({6-[(1S)-1,2,3,4-tetrahydronaphthalen-1-ylamino]pyrimidin-4-yl}oxy)cyclopentyl]methyl sulfamate], for which the IC50 is not above 500 nM.

In the case of `NS(=O)(=O)OC[C@@H]1C[C@@H](Nc2ncnc3[nH]c(-c4cccc5c4OCCO5)nc23)C[C@@H]1O` [Compound I-41, ((1S,2S,4R)-4-{[8-(2,3-dihydro-1,4-benzodioxin-5-yl)-9H-purin-6-yl]amino}-2-hydroxycyclopentyl)methyl sulfamate], the IC50 is not above 500 nM.

Consider `NS(=O)(=O)OC[C@@H]1C[C@@H](Oc2cc(NCc3cccc4ccccc34)ncn2)C[C@@H]1O` [Compound I-42, [(1S,2S,4R)-2-hydroxy-4-({6-[(1-naphthylmethyl)amino]pyrimidin-4-yl}-oxy)cyclopentyl]methyl sulfamate], for which the IC50 was not above 500 nM.

With `C[C@H]1Cc2ccccc2[C@H]1Nc1cc(O[C@@H]2C[C@@H](COS(N)(=O)=O)[C@@H](O)C2)ncn1` [Compound I-43, {(1S,2S,4R)-2-hydroxy-4-[(6-{[(1S,2S)-2-methyl-2,3-dihydro-1H-inden-1-yl]-amino}pyrimidin-4-yl)oxy]cyclopentyl}methyl sulfamate], the IC50 is not above 500 nM.

The same assay, now with this note: 20 μM ATP, bound given in μM.
As for `CN(Cc1ccccc1)c1cc(N[C@@H]2C[C@H](COS(N)(=O)=O)[C@@H](O)[C@H]2O)ncn1` [Compound I-22, [(1R,2R,3S,4R)-4-({6-[benzyl(methyl)amino]pyrimidin-4-yl}amino)-2,3-dihydroxycyclopentyl]methyl sulfamate], the IC50 was more than 10000 nM.

Consider `NS(=O)(=O)OC[C@H]1C[C@@H](NC(=O)c2ccccn2)[C@H](O)[C@@H]1O` [Compound I-23, {(1R,2R,3S,4R)-2,3-dihydroxy-4-[(pyridin-2-ylcarbonyl)amino]cyclopentyl}-methyl sulfamate], for which the IC50 is more than 10000 nM.

For the compound `NS(=O)(=O)OC[C@H]1C[C@@H](NC(=O)c2ccncc2)[C@H](O)[C@@H]1O` [Compound I-28, [(1R,2R,3S,4R)-2,3-dihydroxy-4-(isonicotinoylamino)cyclopentyl]methyl sulfamate], the IC50 is less than 10000 nM.

Take `Cc1nc(NCc2ccccc2)cc(N[C@@H]2C[C@H](COS(N)(=O)=O)[C@@H](O)[C@H]2O)n1` [Compound I-30, ((1R,2R,3S,4R)-4-{[6-(benzylamino)-2-methylpyrimidin-4-yl]amino}-2,3-dihydroxycyclopentyl)methyl sulfamate]: the IC50 was more than 10000 nM.

Take `NS(=O)(=O)OC[C@@H]1C[C@@H](Oc2cc(N[C@H]3CCc4ccccc43)ncn2)C[C@@H]1O` [Compound I-31, [(1S,2S,4R)-4-({6-[(1S)-2,3-Dihydro-1H-inden-1-ylamino]pyrimidin-4-yl}oxy)-2-hydroxycyclopentyl]methyl sulfamate]: the IC50 is more than 10000 nM.

With `NS(=O)(=O)OC[C@@H]1C[C@@H](Cc2cc(N[C@H]3CCc4ccccc43)ncn2)C[C@@H]1O` [Compound I-33, [(1S,2S,4S)-4-({6-[(1S)-2,3-dihydro-1H-inden-1-ylamino]pyrimidin-4-yl}methyl)-2-hydroxycyclopentyl]methyl sulfamate], the IC50 is less than 10000 nM.

In the case of `CC1(C)C[C@H](Nc2cc(O[C@@H]3C[C@@H](COS(N)(=O)=O)[C@@H](O)C3)ccn2)c2ccc(Cl)cc21` [Compound I-35, {(1S,2S,4R)-4-[(2-{[(1S)-5-chloro-3,3-dimethyl-2,3-dihydro-1H-inden-1-yl]-amino}-pyridin-4-yl)oxy]-2-hydroxycyclopentyl}methyl sulfamate], the IC50 is less than 10000 nM.

`Cn1c(-c2ccccc2)nc2ncnc(N[C@@H]3C[C@@H](COS(N)(=O)=O)[C@@H](O)C3)c21` [Compound I-36, {(1S,2S,4R)-2-hydroxy-4-[(7-methyl-8-phenyl-7H-purin-6-yl)-amino]cyclopentyl}methyl sulfamate]: the IC50 is less than 10000 nM.
